Test results as given in ChEMBL document CHEMBL5241113, “Total Heterologous Biosynthesis of Fungal Natural Products in Aspergillus nidulans” (2022).
Values after ≈ are worked out from the molar mass of the structure shown.

Test system: Nematoda
Assay: Nematocidal activity
Assay type: functional

Compound | LC50 [µg/mL]
CC(=O)O[C@H](C[C@H](C)O)[C@@H](C)[C@@H](O)[C@@H](C)C[C@H](C)[C@@H]1OC(=O)[C@H](C)NC(=O)C[C@@H](O)C[C@H](O)[C@H](C)C[C@H]1C | 0.5 (≈ 0.916 µM)
CC(=O)O[C@@H](C)C[C@@H](O)[C@@H](C)[C@@H](O)[C@@H](C)C[C@H](C)[C@@H]1OC(=O)[C@H](C)NC(=O)C[C@@H](O)C[C@H](O)[C@H](C)C[C@H]1C | 0.5 (≈ 0.916 µM)
